Drawing on the supplement of paper PMC12325586, this text covers IC50 cell viability for 38 compounds.

SMILES strings stand for the structures.

For the assay, the system named is MIA PaCa-2. The protocol: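 MIA PaCa-2 Tet-on shOFD1 pancreatic cancer cells (2000 cells/well, 96-well) were treated with Selleck FDA-approved library compounds at 0, 1, 5, 10, 25 and 50 µM, with extra concentrations added where needed, for 72 h at 37 °C. Knockdown wells also received 100 ng/mL doxycycline; control wells received DMSO without doxycycline. Viability was read by CCK-8 absorbance at 450 nm and normalised to DMSO control wells. IC50 was fitted in GraphPad Prism as a 4-parameter logistic with bottom fixed at 0 and top fixed at 1; at least 3 technical replicate wells per condition.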

[1] abbreviates: OFD1 knockdown: no (no doxycycline).
Where [2] appears, read: OFD1 knockdown: yes (Tet-on shOFD1, 100 ng/mL doxycycline).

Consider `CC1(C)CCC(c2ccc(Cl)cc2)=C(CN2CCN(c3ccc(C(=O)NS(=O)(=O)c4ccc(N[C@H](CCN5CCOCC5)CSc5ccccc5)c(S(=O)(=O)C(F)(F)F)c4)cc3)CC2)C1` [S1001], for which the IC50 cell viability runs as follows: under setting [1], 18.7 µM; under setting [2], 19 µM.
The corresponding values for `Cc1ccc(F)c(NC(=O)Nc2ccc(-c3cccc4[nH]nc(N)c34)cc2)c1` [S1003] are 6.31 µM and 6.22 µM.
The corresponding values for `C[C@]1(c2nc3c(C(N)=O)cccc3[nH]2)CCCN1` [S1004] are 77 µM and 44.1 µM.
The corresponding values for `CNC(=O)c1ccccc1Sc1ccc2c(/C=C/c3ccccn3)n[nH]c2c1` [S1005] are 38.7 µM and 43.9 µM.
As for `CN1CCN(CCOc2cc(OC3CCOCC3)c3c(Nc4c(Cl)ccc5c4OCO5)ncnc3c2)CC1` [S1006], the IC50 cell viability under setting [1] was 7.48 µM and the IC50 cell viability under setting [2] came out at 8.13 µM.
As to `Cn1cnc2c(F)c(Nc3ccc(Br)cc3Cl)c(C(=O)NOCCO)cc21` [S1008], the IC50 cell viability by setting is: under setting [1], 1.66 µM; under setting [2], 1.44 µM.
For `COC(=O)c1ccc2c(C(=Nc3ccc(N(C)C(=O)CN4CCN(C)CC4)cc3)c3ccccc3)c(O)[nH]c2c1` [S1010] the same measures were 4.96 µM and 4.24 µM.
Regarding `CN(C)C/C=C/C(=O)Nc1cc2c(Nc3ccc(F)c(Cl)c3)ncnc2cc1O[C@H]1CCOC1` [S1011], the IC50 cell viability is, setting by setting: under setting [1], 66.1 µM; under setting [2], 87.7 µM.
The corresponding values for `COc1cc(Nc2c(C#N)cnc3cc(OCCCN4CCN(C)CC4)c(OC)cc23)c(Cl)cc1Cl` [S1014] are 6.31 µM and 6.07 µM.
The corresponding values for `COc1cc2c(Oc3ccc4[nH]c(C)cc4c3F)ncnc2cc1OCCCN1CCCC1` [S1017] are 13.1 µM and 13.5 µM.
With `CN1CCN(c2ccc3nc(-c4c(N)c5c(F)cccc5[nH]c4=O)[nH]c3c2)CC1` [S1018], the IC50 cell viability stood at 12.9 µM under setting [1] and 11.7 µM under setting [2].
For `Cc1nc(Nc2ncc(C(=O)Nc3c(C)cccc3Cl)s2)cc(N2CCN(CCO)CC2)n1` [S1021] the same measures were 0.81 µM and 0.61 µM.
For `C#Cc1cccc(Nc2ncnc3cc(OCCOC)c(OCCOC)cc23)c1` [S1023] the same measures were 59.1 µM and 65.3 µM.
For `COc1cc2ncnc(Nc3ccc(F)c(Cl)c3)c2cc1OCCCN1CCOCC1` [S1025] the same measures were 2.22 µM and 1.71 µM.
With `Cc1ccc(NC(=O)c2ccc(CN3CCN(C)CC3)cc2)cc1Nc1nccc(-c2cccnc2)n1` [S1026], the IC50 cell viability is, setting by setting: under setting [1], 15 µM; under setting [2], 14.8 µM.
The corresponding values for `CS(=O)(=O)CCNCc1ccc(-c2ccc3ncnc(Nc4ccc(OCc5cccc(F)c5)c(Cl)c4)c3c2)o1` [S1028] are 16.8 µM and 15 µM.
For `Nc1cccc2c1CN(C1CCC(=O)NC1=O)C2=O` (stereo unspecified) [S1029] the same measures were 44 µM and 42.9 µM.
In the case of `Cc1cn(-c2cc(NC(=O)c3ccc(C)c(Nc4nccc(-c5cccnc5)n4)c3)cc(C(F)(F)F)c2)cn1` [S1033], the IC50 cell viability reads like this: under setting [1], 18.9 µM; under setting [2], 17.3 µM.
For the compound `CO[C@H]1C[C@@H]2CC[C@@H](C)[C@@](O)(O2)C(=O)C(=O)N2CCCC[C@H]2C(=O)O[C@H]([C@H](C)C[C@@H]2CC[C@@H](O)[C@H](OC)C2)CC(=O)[C@H](C)/C=C(\C)[C@@H](O)[C@@H](OC)C(=O)[C@H](C)C[C@H](C)/C=C/C=C/C=C/1C` [S1039], the IC50 cell viability reads like this: under setting [1], 0.56 µM; under setting [2], 0.54 µM.
The corresponding values for `CNC(=O)c1cc(Oc2ccc(NC(=O)Nc3ccc(Cl)c(C(F)(F)F)c3)cc2)ccn1` [S1040] are 8.15 µM and 7.5 µM.
For `CCN(CC)CCNC(=O)c1c(C)[nH]c(/C=C2\C(=O)Nc3ccc(F)cc32)c1C` [S1042] the same measures were 2.85 µM and 2.98 µM.
For the compound `CO[C@H]1C[C@@H]2CC[C@@H](C)[C@@](O)(O2)C(=O)C(=O)N2CCCC[C@H]2C(=O)O[C@H]([C@H](C)C[C@@H]2CC[C@@H](OC(=O)C(C)(CO)CO)[C@H](OC)C2)CC(=O)[C@H](C)/C=C(\C)[C@@H](O)[C@@H](OC)C(=O)[C@H](C)C[C@H](C)/C=C/C=C/C=C/1C` [S1044], the IC50 cell viability under setting [1] was determined as 27 µM and the IC50 cell viability under setting [2] is 24 µM.
For `COc1cc2/c(=N/c3ccc(Br)cc3F)nc[nH]c2cc1OCC1CCN(C)CC1` [S1046] the same measures were 5.87 µM and 5.04 µM.
Regarding `O=C(CCCCCCC(=O)Nc1ccccc1)NO` [S1047], the IC50 cell viability came to 5.55 µM under setting [1] and 5.13 µM under setting [2].
For `Cc1cc(Nc2cc(N3CCN(C)CC3)nc(Sc3ccc(NC(=O)C4CC4)cc3)n2)n[nH]1` [S1048] the same measures were 22.9 µM and 22.7 µM.
Turning to `Nc1ccccc1NC(=O)c1ccc(CNC(=O)OCc2cccnc2)cc1` [S1053], the IC50 cell viability is, setting by setting: under setting [1], 11 µM; under setting [2], 11.2 µM.
Take `Cn1cc(C2=C(c3cn(C4CCN(Cc5ccccn5)CC4)c4ccccc34)C(=O)NC2=O)c2ccccc21` [S1055]: the IC50 cell viability by setting is: under setting [1], 13.8 µM; under setting [2], 12.5 µM.
The corresponding values for `O=C(c1cc(Cc2n[nH]c(=O)c3ccccc23)ccc1F)N1CCN(C(=O)C2CC2)CC1` [S1060] are 53.8 µM and 31.9 µM.
For `Cc1ccc(NC(=O)c2ccc(CN3CCN(C)CC3)cc2)cc1Nc1nc(-c2cccnc2)cs1` [S1064] the same measures were 68.8 µM and 66.2 µM.
As for `CS(=O)(=O)N1CCN(Cc2cc3nc(-c4cccc5[nH]ncc45)nc(N4CCOCC4)c3s2)CC1` [S1065], the IC50 cell viability was 10.2 µM under setting [1] and 7.9 µM under setting [2].
`C[C@@H](Oc1cc(-c2cnn(C3CCNCC3)c2)cnc1N)c1c(Cl)ccc(F)c1Cl` [S1068] showed an IC50 cell viability under setting [1] of 1.73 µM and an IC50 cell viability under setting [2] of 1.39 µM.
The corresponding values for `CS(=O)(=O)c1ccc(C(=O)Nc2ccc(Cl)c(-c3ccccn3)c2)c(Cl)c1` [S1082] are 61.8 µM and 69 µM.
For the compound `O=C(/C=C/c1cccc(S(=O)(=O)Nc2ccccc2)c1)NO` [S1085], the IC50 cell viability runs as follows: under setting [1], 3.67 µM; under setting [2], 3.5 µM.
The corresponding values for `NC(=O)c1ccc(I)c([N+](=O)[O-])c1` [S1087] are 69.1 µM and 51.3 µM.
For `C[C@]1(O)C[C@@H](c2nc(-c3ccc4ccc(-c5ccccc5)nc4c3)c3c(N)nccn32)C1` [S1091] the same measures were 48.3 µM and 49.9 µM.
The corresponding values for `Cn1cc(CNCC2CCN(c3ncc(C(=O)NO)cn3)CC2)c2ccccc21` [S1096] are 0.41 µM and 0.39 µM.
`CNCc1ccc(-c2[nH]c3cc(F)cc4c3c2CCNC4=O)cc1` [S1098] yielded an IC50 cell viability under setting [1] of 31.8 µM and an IC50 cell viability under setting [2] of 18.9 µM.
The corresponding values for `Clc1ccc(Nc2nnc(Cc3ccncc3)c3ccccc23)cc1` [S1101] are 30.8 µM and 24.3 µM.
